From patent US8481540B2, “Inhibitors of bruton's tyrosine kinase” (Hoffmann-La Roche Inc., priority 2010, dated 2013) come the findings set out here.

The subject of the first assay is B cells in human blood. In words: Inhibition of B cell activation in whole blood measured by CD69 expression. To be noted: CD69-positive, CD20-positive cells after anti-IgM stimulation, human whole blood, 20 hours, read-out: Human Whole Blood. Format: cell-based. The method, then: Inhibition of B Cell Activation in Whole Blood Measured by CD69 Expression
A procedure to test the ability of Btk inhibitors to suppress B cell receptor-mediated activation of B cells in human blood is as follows:
Human whole blood (HWB) is obtained from healthy volunteers, with the following restrictions: 24 hr drug-free, non-smokers. Blood is collected by venipuncture into Vacutainer tubes anticoagulated with sodium heparin. Test compounds are diluted to […] the desired starting drug concentration in PBS (20×), followed by three-fold serial dilutions in 10% DMSO in PBS to produce a nine point dose-response curve. 5.5 μl of each compound dilution is added in duplicate to a 2 ml96-well V bottom plate (Analytical Sales and Services, #59623-23); 5.5 μl of 10% DMSO in PBS is added to control and no-stimulus wells. HWB (100 μl) is added to each well, and after mixing the plates are incubated at 37 C, 5% CO2, 100% humidity for 30 minutes. Goat F(ab′)2 anti-human IgM (Southern Biotech, #2022-14) (10 μl of a […] solution, 50 μg/ml final concentration) is added to each well (except the no-stimulus wells) with mixing and the plates are incubated for an additional 20 hours.
At the end of the 20 hour incubation, samples are incubated with florescent-probe-labeled anti-bodies (15 μl PE Mouse anti-Human CD20, BD Pharmingen, #555623, and/or 20 ul APC Mouse anti-Human CD69, BD Pharmingen #555533) for 30 minutes, at 37 C, 5% CO2, 100% humidity. Included are induced control, unstained and single stains for compensation adjustments and initial voltage settings. Samples are then lysed with 1 ml of 1× Pharmingen Lyse Buffer (BD Pharmingen #555899), and plates are centrifuged at 1800 rpm for 5 minutes. Supernatants are removed via suction and the remaining pellets are lysed again with another 1 ml of 1× Pharmingen Lyse Buffer, and plates are spun down as before. Supernatants are aspirated and remaining pellets are washed in FACs buffer (PBS+1% FBS). After a final spin, the supernantants are removed and pellets are resuspended in 180 μl of FACs buffer. Samples are transferred to a 96 well plate suitable to be run on the HTS 96 well system on the BD LSR II flow cytometer.
Using appropriate excitation and emission wavelengths for the fluorophores used, data are acquired and percent positive cell values are obtained using Cell Quest Software. Results are initially analyzed by FACS analysis software (Flow Jo). […] The IC50 values are calculated using XLfit software version 3, equation 201.
Representative compound data for this assay are listed below in Table II.
Take `Cn1nc(-c2cccc(-n3ncc4cc(C(C)(C)C)cc(F)c4c3=O)c2CO)cc(Nc2ccc(OCC(C)(C)O)cn2)c1=O` [I-14, 6-tert-butyl-8-fluoro-2-(2-hydroxymethyl-3-{5-[5-(2-hydroxy-2-methyl-propoxy)-pyridin-2-ylamino]-1-methyl-6-oxo-1,6-dihydro-pyridazin-3-yl}-phenyl)-2H-phthalazin-1-one]: the IC50 was 65 nM.
Same read-out and setting: next, `CN1CC[C@H](c2ccc(Nc3cc(-c4cccc(-n5ncc6cc(C(C)(C)C)cc(F)c6c5=O)c4CO)nn(C)c3=O)nc2)C1` [I-33, 6-tert-Butyl-8-fluoro-2-(2-hydroxymethyl-3-{1-methyl-5-[5-((R)-1-methyl-pyrrolidin-3-yl)-pyridin-2-ylamino]-6-oxo-1,6-dihydro-pyridazin-3-yl}-phenyl)-2H-phthalazin-1-one]: 2 nM.
The same measure, in the same setting: next, `CN1CCN(c2ccc(Nc3cc(-c4cccc(-n5ncc6cc(C(C)(C)C)cc(F)c6c5=O)c4CO)nn(C)c3=O)nc2)CC1` [I-56, 6-tert-Butyl-8-fluoro-2-(2-hydroxymethyl-3-{1-methyl-5-[5-(4-methyl-piperazin-1-yl)-pyridin-2-ylamino]-6-oxo-1,6-dihydro-pyridazin-3-yl}-phenyl)-2H-phthalazin-1-one]: 17 nM; `CN1CCC(c2ccc(Nc3cc(-c4cccc(-n5ncc6cc(C(C)(C)C)cc(F)c6c5=O)c4CO)nn(C)c3=O)nc2)C1` (stereo not shown) [I-28, 6-tert-Butyl-8-fluoro-2-(2-hydroxymethyl-3-{1-methyl-5-[5-(1-methyl-pyrrolidin-3-yl)-pyridin-2-ylamino]-6-oxo-1,6-dihydro-pyridazin-3-yl}-phenyl)-2H-phthalazin-1-one]: 6 nM; `CN1CC[C@@H](c2ccc(Nc3cc(-c4cccc(-n5ncc6cc(C(C)(C)C)cc(F)c6c5=O)c4CO)nn(C)c3=O)nc2)C1` [I-32, 6-tert-Butyl-8-fluoro-2-(2-hydroxymethyl-3-[1-methyl-5-[5-((S)-1-methyl-pyrrolidin-3-yl)-pyridin-2-ylamino]-6-oxo-1,6-dihydro-pyridazin-3-yl]-phenyl)-2H-phthalazin-1-one]: 23 nM.
Take `CN1CCC(c2ccc(Nc3cc(-c4cccc(-n5ccc6cc(C(C)(C)C#N)cc(F)c6c5=O)c4CO)nn(C)c3=O)nc2)CC1` [I-71, 2-(8-Fluoro-2-{2-hydroxymethyl-3-[1-methyl-5-(1′-methyl-1′,2′,3′,4′,5′,6′-hexahydro-[3,4′]bipyridinyl-6-ylamino)-6-oxo-1,6-dihydro-pyridazin-3-yl]-phenyl}-1-oxo-1,2-dihydro-isoquinolin-6-yl)-2-methyl-propionitrile]: the IC50 is 32 nM.
On the same count and under the same terms, as for `CN(CCO)C(=O)c1ccc(Nc2cc(-c3cccc(-n4ncc5cc(C(C)(C)C)cc(F)c5c4=O)c3CO)nn(C)c2=O)nc1` [I-52, 6-(6-(3-(6-tert-butyl-8-fluoro-1-oxophthalazin-2(1H)-yl)-2-(hydroxymethyl)phenyl)-2-methyl-3-oxo-2,3-dihydropyridazin-4-ylamino)-N-(2-hydroxyethyl)-N-methylnicotinamide], the figure is 27 nM.
For the compound `Cn1nc(-c2cccc(-n3ncc4cc(C(C)(C)C)cc(F)c4c3=O)c2CO)cc(Nc2ccc(C(=O)N3CCC(O)C3)cn2)c1=O` (stereo not shown) [I-54, 6-tert-butyl-8-fluoro-2-(2-(hydroxymethyl)-3-(5-(5-(3-hydroxypyrrolidine-1-carbonyl)pyridin-2-ylamino)-1-methyl-6-oxo-1,6-dihydropyridazin-3-yl)phenyl)phthalazin-1(2H)-one], the IC50 came out at 104 nM.
Still for that read-out and setting: next, `Cn1nc(-c2cccc(-n3ncc4cc(C(C)(C)C)cc(F)c4c3=O)c2CO)cc(Nc2ccc(C(=O)N3CCC3)cn2)c1=O` [I-47, 2-(3-{5-[5-(Azetidine-1-carbonyl)-pyridin-2-ylamino]-1-methyl-6-oxo-1,6-dihydro-pyridazin-3-yl}-2-hydroxymethyl-phenyl)-6-tert-butyl-8-fluoro-2H-phthalazin-1-one]: 76 nM.
On the same count and under the same terms, next, `Cn1nc(-c2cccc(N3CCc4cc(C(C)(C)C#N)cc(F)c4C3=O)c2CO)cc(Nc2ccc(OC(C)(C)CN3CCC3)cn2)c1=O` [I-78, 2-[2-(3-{5-[5-(2-azetidin-1-yl-1,1-dimethyl-ethoxy)-pyridin-2-ylamino]-1-methyl-6-oxo-1,6-dihydro-pyridazin-3-yl}-2-hydroxymethyl-phenyl)-8-fluoro-1-oxo-1,2,3,4-tetrahydro-isoquinolin-6-yl]-2-methyl-propionitrile]: 84 nM; `CN1CCC[C@H]1c1ccc(Nc2cc(-c3cccc(-n4ncc5cc(C(C)(C)C)cc(F)c5c4=O)c3CO)nn(C)c2=O)nc1` [I-18, 6-tert-Butyl-8-fluoro-2-(2-hydroxymethyl-3-{1-methyl-5-[5-((S)-1-methyl-pyrrolidin-2-yl)-pyridin-2-ylamino]-6-oxo-1,6-dihydro-pyridazin-3-yl}-phenyl)-2H-phthalazin-1-one]: 3 nM.
On the same count and under the same terms, next, `CCN1CCn2nc(Nc3cc(-c4cccc(-n5ccc6cc(C(C)(C)C#N)cc(F)c6c5=O)c4CO)nn(C)c3=O)cc2C1` [I-83, 2-(2-{3-[5-(5-Ethyl-4,5,6,7-tetrahydro-pyrazolo[1,5-a]pyrazin-2-ylamino)-1-methyl-6-oxo-1,6-dihydro-pyridazin-3-yl]-2-hydroxymethyl-phenyl}-8-fluoro-1-oxo-1,2-dihydro-isoquinolin-6-yl)-2-methyl-propionitrile]: 70 nM; `CC(C)S(=O)(=O)c1ccc(Nc2cc(-c3cccc(-n4ncc5cc(C(C)(C)C)cc(F)c5c4=O)c3CO)nn(C)c2=O)nc1` [I-24, 6-tert-Butyl-8-fluoro-2-(2-hydroxymethyl-3-{1-methyl-6-oxo-5-[5-(propane-2-sulfonyl)-pyridin-2-ylamino]-1,6-dihydro-pyridazin-3-yl}-phenyl)-2H-phthalazin-1-one]: 116 nM.
For `CN1CCn2nc(Nc3cc(-c4cccc(-n5ccc6cc(C(C)(C)C#N)cc(F)c6c5=O)c4CO)nn(C)c3=O)cc2C1` [I-74, 2-(8-Fluoro-2-{2-hydroxymethyl-3-[1-methyl-5-(5-methyl-4,5,6,7-tetrahydro-pyrazolo[1,5-a]pyrazin-2-ylamino)-6-oxo-1,6-dihydro-pyridazin-3-yl]-phenyl}-1-oxo-1,2-dihydro-isoquinolin-6-yl)-2-methyl-propionitrile], the IC50 was determined as 34 nM.
On the same count and under the same terms, as for `CN(C)C(=O)c1ccc(Nc2cc(-c3cccc(-n4ccc5cc(C(C)(C)C#N)cc(F)c5c4=O)c3CO)nn(C)c2=O)nc1` [I-75, 6-(6-{3-[6-(Cyano-dimethyl-methyl)-8-fluoro-1-oxo-1H-isoquinolin-2-yl]-2-hydroxymethyl-phenyl}-2-methyl-3-oxo-2,3-dihydro-pyridazin-4-ylamino)-N,N-dimethyl-nicotinamide], the figure is 180 nM; as for `CCOC(=O)N1CCN(c2ccc(Nc3cc(-c4cccc(-n5ncc6cc(C(C)(C)C)cc(F)c6c5=O)c4CO)nn(C)c3=O)nc2)CC1` [I-86, 4-(6-{6-[3-(6-tert-Butyl-8-fluoro-1-oxo-1H-phthalazin-2-yl)-2-hydroxymethyl-phenyl]-2-methyl-3-oxo-2,3-dihydro-pyridazin-4-ylamino}-pyridin-3-yl)-piperazine-1-carboxylic acid ethyl ester], 408 nM; as for `CN1C[C@H]2CC[C@@H](C1)N2c1ccc(Nc2cc(-c3cccc(-n4ncc5cc(C(C)(C)C)cc(F)c5c4=O)c3CO)nn(C)c2=O)nc1` [I-66, 6-tert-Butyl-8-fluoro-2-(2-hydroxymethyl-3-{1-methyl-5-[5-((1R,5S)-3-methyl-3,8-diaza-bicyclo[3.2.1]oct-8-yl)-pyridin-2-ylamino]-6-oxo-1,6-dihydro-pyridazin-3-yl}-phenyl)-2H-phthalazin-1-one], 23 nM.
Still for that read-out and setting: as for `COC[C@@H](O)COc1ccc(Nc2cc(-c3cccc(-n4ncc5cc(C(C)(C)C)cc(F)c5c4=O)c3CO)nn(C)c2=O)nc1` [I-17], the figure is 41 nM.

The assay is the same for the next values; noted with them: Homo sapiens, 20 h, read-out: Human Whole Blood.
In the case of `CN1CCC(c2ccc(Nc3cc(-c4cccc(-n5ncc6cc(C(C)(C)C)cc(F)c6c5=O)c4CO)nn(C)c3=O)nc2)CC1` [I-67, 6-tert-Butyl-8-fluoro-2-{2-hydroxymethyl-3-[1-methyl-5-(1′-methyl-1′,2′,3′,4′,5′,6′-hexahydro-[3,4]bipyridinyl-6-ylamino)-6-oxo-1,6-dihydro-pyridazin-3-yl]-phenyl}-2H-phthalazin-1-one], the IC50 came out at 4 nM.
